US20240115546A1, “AGENT FOR PREVENTING OR AMELIORATING PRURITUS” (KAO CORPORATION, priority 2021, published 2024)

Experiments:
C3a receptor = target: T1, C3a receptor (Homo sapiens, UniProt Q16581); experiment: Ca2+-flux assay for C3a receptor antagonism in transfected HEK293 cells; type: cell-based; settings: antagonist 10 nM, mouse TLQP-21 1 μM; HEK293 transfected with C3a receptor and GNA16; Fluo-4; vs control; FIG. 6
T1 sequence (Q16581 1-482): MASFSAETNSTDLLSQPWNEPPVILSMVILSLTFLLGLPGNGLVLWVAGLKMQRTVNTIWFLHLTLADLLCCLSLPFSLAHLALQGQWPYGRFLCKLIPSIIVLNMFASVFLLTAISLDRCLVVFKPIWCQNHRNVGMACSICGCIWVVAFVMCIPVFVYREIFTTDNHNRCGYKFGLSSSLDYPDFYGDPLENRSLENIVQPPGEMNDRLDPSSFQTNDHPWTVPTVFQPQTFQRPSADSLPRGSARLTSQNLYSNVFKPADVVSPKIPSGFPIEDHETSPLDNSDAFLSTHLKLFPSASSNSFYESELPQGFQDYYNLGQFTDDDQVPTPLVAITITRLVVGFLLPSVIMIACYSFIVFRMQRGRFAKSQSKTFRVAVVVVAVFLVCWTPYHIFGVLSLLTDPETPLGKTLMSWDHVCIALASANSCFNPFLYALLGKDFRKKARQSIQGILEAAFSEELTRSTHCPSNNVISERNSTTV
Experimental: In the following evaluation, Compound 1 and Compound 2 were dissolved in DMSO and diluted with HBSS as appropriate.
Human Embryonic Kidney cells 293 (HEK293) were used, transfected with the expression vectors necessary for evaluation according to the following.
A transfection solution was prepared by sequentially adding C3a receptor expression vector, GNA16 expression vector, and PEI-MAX (PolyScience) solution to serum-free DMEM medium, mixing well, and then allowing it to stand at room temperature for 20 minutes. […]
The cells for evaluating C3a receptor response described above were seeded in a 96-well Black Polystyrene Microplate (Thermo fisher scientific) precoated with Poly-L-Ornithine Solution (FUJIFILM Wako Pure Chemical). […] After 15 minutes, a mouse TLQP-21 solution was added for C3a receptor stimulation, and the Ca^2+ influx associated with the stimulation was measured over time as intracellular fluorescence intensity (Ex: 494 nm, Em: 525 nm). The value obtained by subtracting the measured value when HBSS was added instead of mouse TLQP-21 solution (blank) was used as the measured value. The C3a receptor antagonist solution and mouse TLQP-21 solution were added after adjusting their concentrations by appropriately diluting them so that their final concentrations when measuring fluorescence intensity were 10 nM and 1 μM, respectively. […]

[1] = system: AD model mice (NC/Nga, mite allergen-induced); experiment: Scratching behavior in AD model mice given C3a receptor antagonist; type: in vivo, mouse; settings: 200 μL subcutaneous, Compound 1 0.5 mg/mL, Compound 2 0.05 mg/mL, three times a week; measured for 3 hours after last administration; vs solvent alone; FIG. 7
Experimental: Seven-week-old female NC/Nga mice were used.
Preparation of AD model mice: The back of the neck was shaved, and 100 mg of an ointment containing mite allergen: Biostir AD (Biostir Inc.) was applied to the back of the neck and auricular region under isoflurane anesthesia for initial sensitization. Four days after the first application of the ointment containing mite allergen, 150 μL of 4% (w/v) SDS solution and 100 mg of ointment containing mite allergen were applied to the back of the neck and auricular region under isoflurane anesthesia. Thereafter, the same procedure was performed four times at a frequency of once every 3 to 4 days to induce AD-like dermatitis.
Compound 1 or Compound 2, whose C3a receptor antagonism was confirmed in Example 4 above, was used as a C3a receptor antagonist. Compound 1 or Compound 2 was dissolved in saline containing 20% polyethylene glycol 400, of which 200 μL was administered subcutaneously to the back of the neck. The control group was administered with the same amount of only the above solvent. The concentration of the C3a receptor antagonist solution was set at 0.5 mg/mL for Compound 1 and 0.05 mg/mL for Compound 2. […]
Four days after the last application of the ointment containing mite allergen, the scratching behavior was measured for 3 hours after the last administration of the sample. […]

[2] = system: AEW model mice (C57BL/6J); experiment: Scratching behavior in AEW model mice given C3a receptor antagonist; type: in vivo, mouse; settings: 200 μL subcutaneous, Compound 1 0.5 mg/mL, Compound 2 0.05 mg/mL, once daily for 8 days; measured for 3 hours after last administration; vs solvent alone; FIG. 8
From the text: The animals used were male C57BL/6J mice.
Preparation of AEW model: The back of the neck was shaved, and absorbent cotton soaked with a 1:1 (v/v) mixture of acetone and diethyl ether was applied and allowed to stand for 15 seconds. Immediately thereafter, absorbent cotton soaked with water was applied for 30 seconds. This treatment was repeated twice/day (morning and evening) for 7 days.
Compound 1 or Compound 2, whose C3a receptor antagonism was confirmed in Example 4 above, was used as a C3a receptor antagonist. Compound 1 or Compound 2 was dissolved in saline containing 20% polyethylene glycol 400, of which 200 μL was administered subcutaneously to the back of the neck. The control group was administered with the same amount of only the above solvent. The concentration of the C3a receptor antagonist solution was set at 0.5 mg/mL for Compound 1 and 0.05 mg/mL for Compound 2. Sample administration started after the first AEW treatment and was performed at a frequency of once daily for 8 days.
Sixteen hours after the last AEW treatment, the scratching behavior was measured for 3 hours after the last administration of the sample. MicroAct (Neuroscience) was used to measure the scratching behavior.

SMILES | Fluorescence intensity due to C3a receptor stimulation by TLQP-21 (Ca2+ influx, integrated over 3 min) (C3a receptor) | Scratching behavior [1] | Scratching behavior [2]
Cc1cc(C(c2ccc(Cl)cc2)c2ccc(Cl)cc2)sc1C(=O)N[C@@H](CCCNC(=N)N)C(=O)O [Compound 2, L-arginine, N2-[[5-[bis(4-chlorophenyl)methyl]-3-methyl-2-thienyl]carbonyl]] | greatly suppressed | significant decrease | significant decrease
N=C(N)NCCC[C@H](NC(=O)c1ccc(C(c2ccccc2)c2ccccc2)s1)C(=O)O [Compound 1, L-arginine, N2-[[5-(diphenylmethyl)-2-thienyl]carbonyl]] | greatly suppressed | significant decrease | significant decrease
